The values that follow are results of earlier work, collected in patent EP3878534A1, “EXTRACTION AND BACK-EXTRACTION OF HYDROPHOBIC COMPOUNDS USING DEEP EUTECTIC SOLVENT WITH TUNEABLE HYDROPHOBICITY” (Wageningen Universiteit, priority 2020, dated 2021).

By pKa is commonly meant the negative logarithm of the acid dissociation constant.

The conditions of series [1]: octanol/water, individual compound.

The structures appear in SMILES notation.

In the case of `CC1CCC(C(C)C)C(O)C1` (racemic) [DL-Menthol, 2-isopropyl-5-methylcyclohexanol], in series [1], the “Log Poct (Pub Chem)” value is recorded as 3.20.

In the case of `CCCCCCCC(=O)O` [Octanoic acid], the “Log Poct (Pub Chem)” value in series [1] is reported as 3.05.

Regarding `CCCCCC(=O)O` [Hexanoic acid], the pKa was 4.88. For the same compound, the “Log Poct (Pub Chem)” value in series [1] is on record as 1.92.
